Data taken from ChEMBL document CHEMBL1201862, “PubChem BioAssay data set” (2004).
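A five-concentration, 48-hour dose response in 96-well plates underlies each endpoint, interpolated linearly between surrounding concentrations. Here, GI50 denotes the concentration required for 50% inhibition of growth.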 Active and inactive are the calls of the source. No stated cut-off is given here; in the data, active = GI50 up to about 1.1 µM and inactive = higher.

Experiments:
Assay in all cases: NCI anticancer screen, dose series, 48 h
[1] = system: K562
[2] = system: SK-MEL-28
[3] = system: LOX IMVI
[4] = system: MCF7
[5] = system: TK-10
[6] = system: SN12C
[7] = system: OVCAR-3
[8] = system: Hs-578T
[9] = system: SK-MEL-2
[10] = system: SK-OV-3
[11] = system: MDA-MB-231
[12] = system: PC-3
[13] = system: NCI-H23
[14] = system: BT-549
[15] = system: HT-29
[16] = system: HL-60
[17] = system: SNB-75
[18] = system: HCC 2998

Row | SMILES | GI50 [1] | GI50 [2] | GI50 [3] | GI50 [4] | GI50 [5] | GI50 [6] | GI50 [7] | GI50 [8] | GI50 [9] | GI50 [10] | GI50 [11] | GI50 [12] | GI50 [13] | GI50 [14] | GI50 [15] | GI50 [16] | GI50 [17] | GI50 [18]
1 | C=C1CC[C@@H]2[C@](C)(COC(=O)CCC(=O)OC)CCC[C@@]2(C)[C@@H]1CCC1=CC(=O)OC1 | 29 µM (inactive) | > 100 µM (inactive) | 55.3 µM (inactive) | 38.1 µM (inactive) | > 100 µM (inactive) | > 100 µM (inactive) | 61.4 µM (inactive) | 77.6 µM (inactive) | 43.4 µM (inactive) | > 100 µM (inactive) | > 100 µM (inactive) | 41 µM (inactive) | > 100 µM (inactive) | 64.9 µM (inactive) | > 100 µM (inactive) | 20.3 µM (inactive) | – | –
2 | Cc1ccc([N+](=O)[O-])cc1S(=O)(=O)Nc1ccc(C2=NN(S(=O)(=O)c3cc([N+](=O)[O-])ccc3C)C(c3ccco3)C2)cc1 (centres undefined) | 31 µM (inactive) | > 100 µM (inactive) | 39 µM (inactive) | 32.1 µM (inactive) | – | 44.8 µM (inactive) | 37.1 µM (inactive) | > 100 µM (inactive) | 38 µM (inactive) | > 100 µM (inactive) | – | 45.5 µM (inactive) | 37.6 µM (inactive) | 25.8 µM (inactive) | 54 µM (inactive) | 38.8 µM (inactive) | > 100 µM (inactive) | –
3 | C=CCN(c1cc(OC)c2c(c1[N+](=O)[O-])C(C)(SC)C(=O)N2)S(C)(=O)=O (centres undefined) | > 100 µM (inactive) | > 100 µM (inactive) | > 100 µM (inactive) | > 100 µM (inactive) | 50.5 µM (inactive) | > 100 µM (inactive) | – | 55.5 µM (inactive) | > 100 µM (inactive) | > 100 µM (inactive) | > 100 µM (inactive) | > 100 µM (inactive) | > 100 µM (inactive) | > 100 µM (inactive) | > 100 µM (inactive) | – | 91.6 µM (inactive) | 65.5 µM (inactive)
4 | NC(=S)N/N=C1\CCCC1C(O)(C(F)(F)Cl)C(F)(F)Cl (centres undefined) | > 10 µM (inactive) | > 10 µM (inactive) | > 10 µM (inactive) | > 10 µM (inactive) | > 10 µM (inactive) | > 10 µM (inactive) | > 10 µM (inactive) | > 10 µM (inactive) | > 10 µM (inactive) | > 10 µM (inactive) | > 10 µM (inactive) | > 10 µM (inactive) | > 10 µM (inactive) | > 10 µM (inactive) | > 10 µM (inactive) | – | > 10 µM (inactive) | > 10 µM (inactive)
5 | S=c1[nH]nc(Cn2c3ccc(Br)cc3c3nc4ccccc4nc32)o1 | 35.1 µM (inactive) | 27.3 µM (inactive) | – | 39 µM (inactive) | 69.5 µM (inactive) | 51.9 µM (inactive) | 29.9 µM (inactive) | – | 8.67 µM (inactive) | > 78.5 µM (inactive) | > 45.4 µM (inactive) | 4.79 µM (inactive) | 25.2 µM (inactive) | > 63.2 µM (inactive) | 35.6 µM (inactive) | – | 86.1 µM (inactive) | 38.8 µM (inactive)
6 | CNC(=S)N/N=C(\C)c1ccc(OC)cc1O | 0.7 µM (active) | > 100 µM (inactive) | > 100 µM (inactive) | – | – | > 91.4 µM (inactive) | > 100 µM (inactive) | > 89.9 µM (inactive) | > 100 µM (inactive) | > 100 µM (inactive) | > 100 µM (inactive) | > 100 µM (inactive) | > 100 µM (inactive) | > 100 µM (inactive) | 0.337 µM (active) | 0.841 µM (active) | > 100 µM (inactive) | > 100 µM (inactive)
7 | CC12CC(c3ccccc3O1)C(C(=O)Nc1cccc(F)c1)C(=O)N2 (centres undefined) | 35.4 µM (inactive) | 78.2 µM (inactive) | 49 µM (inactive) | 44.7 µM (inactive) | – | – | 92 µM (inactive) | > 100 µM (inactive) | > 100 µM (inactive) | > 100 µM (inactive) | – | 49.1 µM (inactive) | 17.3 µM (inactive) | 23.5 µM (inactive) | 55.8 µM (inactive) | 30.5 µM (inactive) | – | > 100 µM (inactive)
8 | COCP1(=S)OC(C)CCN1C(C)C (centres undefined) | > 100 µM (inactive) | – | > 100 µM (inactive) | > 100 µM (inactive) | > 100 µM (inactive) | – | > 100 µM (inactive) | – | > 100 µM (inactive) | > 100 µM (inactive) | > 100 µM (inactive) | > 100 µM (inactive) | > 100 µM (inactive) | > 100 µM (inactive) | > 100 µM (inactive) | – | – | > 100 µM (inactive)
9 | COC(=O)Nc1nc2cc(S(=O)(=O)N3CCOCC3)ccc2[nH]1 | 44.7 µM (inactive) | 49.7 µM (inactive) | > 100 µM (inactive) | > 100 µM (inactive) | 80.2 µM (inactive) | > 100 µM (inactive) | > 100 µM (inactive) | > 100 µM (inactive) | > 100 µM (inactive) | > 100 µM (inactive) | > 100 µM (inactive) | > 100 µM (inactive) | > 100 µM (inactive) | > 100 µM (inactive) | > 100 µM (inactive) | 6.21 µM (inactive) | 69.8 µM (inactive) | –
